One block for each substance: values may come before it. Where no end group is shown, it is not given here.
How the values were obtained:
Format in all cases: cell-based
[1] = system: NIH 3T3 cells; experiment: Cell number, cell protein and morphology of treated NIH 3T3 cells
[2] = system: cell surface syndecan-1; experiment: ELISA for cell surface syndecan-1 on NIH 3T3 cells; settings: for increase of cell surface syndecan-1: confluent NIH 3T3 cells, after 48 hr culture
Procedure: An in vitro cell culture system was used to explore the mechanism by which cell surface syndecans is induced. NIH 3T3 cells grown to confluence in serum-containing medium were exposed to potential inducers and then evaluated by ELISA for the amount of cell surface syndecan-1.
Syndecan-1 at the cell surface was determined on cells cultured in 96 well tissue culture plates by washing the cells once in Tris buffered saline (TBS) (10 mM Tris, 150 mM NaCl, pH 7.4), fixing 30 min in 2% HEPES-buffered paraformaldehyde, pH 7.4, rinsing three times in TBS and incubating the cells for 30 min in TBS, 0.1% BSA, 5% goat serum. Cells were incubated for 1 hr at room temperature with 5 μg/ml mAb 281-2 (specific for extracellular domain of syndecan-1 core protein) (M. Jalkanen, H. Nguyen, A. C. Rapraeger, N. Kurn, M. Bernfield, J. Cell Biol., 101:976 (1985)) or non-specific rat IgG2A (Zymed, San Francisco, Calif.). Cells were then rinsed 3×5 min with TBS, incubated with alkaline phosphatase conjugated goat anti-rat antibody (Caltag, San Francisco, Calif.) for 30 min, rinsed 3×5 min with TBS, and alkaline phosphatase activity determined by measuring the absorbance at 405 nm of a 1 mg/ml solution of p-nitrophenolphosphate (Sigma, St. Louis, Mo.) in 10 mM Tris, 100 mM NaCl, 5 mM MgCl pH 9.5. Linear rates of absorbance change over time were determined by an automated microplate reader (Molecular Devices, Menlo Park, Calif.). Cells were then rinsed 3× with TBS and cellular protein determined by solubilizing cells in individual wells with 20 μl of 0.1N NaOH followed by protein determination (BCA protein assay, Pierce, Rockford, Ill.).
These measurements correlated strongly over the range of syndecan-1 detected in this study (r=0.96), confirming that the ELISA assay provides a quantitative assessment of cell surface syndecan-1. […]

[3] = system: NIH-3T3 cells; experiment: Effect on cell morphology (f-actin, rhodamine phalloidin); settings: 2 μM, 72 hr, confluent NIH-3T3
Procedure: To determine the effect on cell morphology, NIH-3T3 cells were cultured to confluence on coverslips in 24 well plates. 2 μM PR-39 was added the medium and cultured for 72 hr. 2% PFA and acetone were used to fix cells and cells were stained with f-actin with rhodamine phalloidin.

[4] = system: NIH-3T3 cells; experiment: Cell permeability after PR-39 treatment (propium iodide); settings: for fluorescent cells per 20× field: confluent NIH-3T3, 60 minutes at 37° C., 50 μg/ml propium iodide
Procedure: Cell permeability after PR-39 treatment was then measured. NIH-3T3 cells were cultured to confluence on chamber slides. 0, 0.1, 0.5, 1, and 10 μM PR-39 was added to the culture medium and incubated 60 minutes at 37° C.; then 50 μg/ml propium iodide (FW 688) was added.

[5] = system: NIH-3T3 cells; experiment: Uptake and binding of iodinated PR-39
Procedure: FIG. 4 is a graph showing uptake of PR-39 by NIH-3T3 cells.
PR-39 was iodinated using the Iodogen procedure (Pierce T). The influx and efflux kinetics were calculated, accessable compartments were evaluated, and total uptake measured in NIH-3T3 cells.

Substance: FGF-2
- increase of cell number [1]: about two-fold
- increase of cell surface syndecan-1 [2]: approximately three to four-fold

Substance: PDGF-AB
- increase of cell number [1]: about two-fold
- increase of cell surface syndecan-1 [2]: approximately three to four-fold

Substance: RRRPRPPYLPRPRPPPFFPPRLPPRIPPGFPPRFPPRFP [PR-39]
- change in cell morphology [3]: No change in cell morphology
- membrane permeability change ([4]; 0.1, 0.5, 1 and 10 μM, 60 minutes at 37° C.): no large perability changes
- fluorescent cells per 20× field [4]: 2 /20× field
- induction of cell surface syndecan-1 by PR-39 ([2]; NIH-3T3 cells, 43 hours): concentration dependent manner
- uptake into cells ([5]; iodinated PR-39, NIH-3T3 cells): rapidly associates with and enters NIH-3T3 cells
- saturation of uptake ([5]; radioactive PR-39, NIH-3T3 cells): reaches a saturation point

- fluorescent cells, percent ([4]; confluent NIH-3T3, 50 μg/ml propium iodide): 100%
- fluorescent cells per 20× field [4]: approximately 50 /20× field
Substance: Triton™

From patent US5654273A, “Synducin mediated modulation of tissue repair” (Children's Medical Center Corporation, priority 1994, dated 1997)
